# Laboratory results reported in patent US8158829B2, “Organic sulfur compound and its use for controlling harmful arthropod” (Sumitomo Chemical Company, Limited, priority 2007, dated 2012).
# Test system: Blattella germanica
# Assay: Test Example 3: filter paper with sucrose bait, Blattella germanica male imagoes
# Assay type: in vivo
# Conditions: 500 ppm, 0.7 ml on filter paper; 2 male imagoes; after 6 days
# Description: Preparations of the present compounds (2), (3), (5) and (6) obtained according to Formulation Example 11 were diluted so that the active ingredient concentration was 500 ppm to obtain test solutions.
# A filter paper having a diameter of 5.5 cm was spread on the bottom of a polyethylene cup having a diameter of 5.5 cm and 0.7 ml of the test solution was added dropwise onto the filter paper. As a bait 30 mg of sucrose was uniformly placed on the filter paper. Into the polyethylene cup, 2 male imagoes of Blattella germanica were released and the cup was sealed with a lid. After 6 days, the number of surviving Blattella germanica was examined and the death rate of the pest was calculated.
row,SMILES,death rate of the pest
1,"NC(=O)C(Cl)(CCC(F)(F)C(F)(F)Br)S(=O)(=O)CCC(F)(F)F (stereo not shown) [present compound (6), 6-bromo-2-chloro-5,5,6,6-tetrafluoro-2-(3,3,3-trifluoropropylsulfonyl)hexanamide]",100%
2,"COC(=O)C(Cl)(CCC(F)(Cl)C(F)(F)Cl)S(=O)(=O)CCC(F)(F)F (stereo not shown) [present compound (2), methyl 2,5,6-trichloro-5,6,6-trifluoro-2-(3,3,3-trifluoropropylsulfonyl)hexanoate]",100%
3,"COC(=O)C(Cl)(CCC(F)(F)C(F)(F)Br)S(=O)(=O)CCC(F)(F)F (stereo not shown) [present compound (5), methyl 6-bromo-2-chloro-5,5,6,6-tetrafluoro-2-(3,3,3-trifluoropropylsulfonyl)hexanoate]",100%
4,"NC(=O)C(Cl)(CCC(F)(Cl)C(F)(F)Cl)S(=O)(=O)CCC(F)(F)F (stereo not shown) [present compound (3), 2,5,6-trichloro-5,6,6-trifluoro-2-(3,3,3-trifluoropropylsulfonyl)hexanamide]",100%
